Assay results from US20100292231A1, “Indazole Compounds for Treating Inflammatory Disorders, Demyelinating Disorders and Cancers” (priority 2007, published 2010).

What was measured:
Experiment in all cases: SelectScreen kinase specificity survey
Format in all cases: biochemical
Details in all cases: estimated, abridged dose response curve, read-out: Kinase inhibitory activity EC50
CSK = target: T1, CSK (Homo sapiens, UniProt P41240)
T1 construct: purchased Invitrogen (SelectScreen service)
Procedure, shortened: (§1)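 ATP held at 100 micromolar; every kinase had its own substrate and optical reporter. The compound was dosed in 5 increments, and a 4-parameter Hill curve gave the EC50 estimate.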

MAPK8 (JNK1) = target: T2, MAPK8 (JNK1) (Homo sapiens, UniProt P45983)
T2 construct: purchased Invitrogen, Inc. (SelectScreen service)
Procedure, shortened: as §1

CSNK2A2 (CK2 alpha 2) = target: T3, CSNK2A2 (CK2 alpha 2) (Homo sapiens, UniProt P19784)
T3 construct: purchased Invitrogen, Inc. (SelectScreen service)
Procedure, shortened: as §1

CAMK1D (CaMKI delta) = target: T4, CAMK1D (CaMKI delta) (Homo sapiens, UniProt Q8IU85)
T4 construct: purchased Invitrogen, Inc. (SelectScreen platform)
Procedure, shortened: as §1

CHEK1 (CHK1) = target: T5, CHEK1 (CHK1) (Homo sapiens, UniProt O14757)
T5 construct: purchased Invitrogen, Inc. (SelectScreen platform)
Procedure, shortened: as §1

RPS6KB1 (p70S6K) = RPS6KB1 (p70S6K) (Homo sapiens, UniProt P23443)
Procedure, shortened: as §1

MERTK (cMER) = target: T6, MERTK (cMER) (Homo sapiens, UniProt Q12866)
T6 construct: purchased Invitrogen (SelectScreen service)
Procedure, shortened: as §1

IKBKB (IKK beta) = target: T7, IKBKB (IKK beta) (Homo sapiens, UniProt O14920)
T7 construct: purchased Invitrogen, Inc. (SelectScreen service)
T7 sequence (O14920 whole entry): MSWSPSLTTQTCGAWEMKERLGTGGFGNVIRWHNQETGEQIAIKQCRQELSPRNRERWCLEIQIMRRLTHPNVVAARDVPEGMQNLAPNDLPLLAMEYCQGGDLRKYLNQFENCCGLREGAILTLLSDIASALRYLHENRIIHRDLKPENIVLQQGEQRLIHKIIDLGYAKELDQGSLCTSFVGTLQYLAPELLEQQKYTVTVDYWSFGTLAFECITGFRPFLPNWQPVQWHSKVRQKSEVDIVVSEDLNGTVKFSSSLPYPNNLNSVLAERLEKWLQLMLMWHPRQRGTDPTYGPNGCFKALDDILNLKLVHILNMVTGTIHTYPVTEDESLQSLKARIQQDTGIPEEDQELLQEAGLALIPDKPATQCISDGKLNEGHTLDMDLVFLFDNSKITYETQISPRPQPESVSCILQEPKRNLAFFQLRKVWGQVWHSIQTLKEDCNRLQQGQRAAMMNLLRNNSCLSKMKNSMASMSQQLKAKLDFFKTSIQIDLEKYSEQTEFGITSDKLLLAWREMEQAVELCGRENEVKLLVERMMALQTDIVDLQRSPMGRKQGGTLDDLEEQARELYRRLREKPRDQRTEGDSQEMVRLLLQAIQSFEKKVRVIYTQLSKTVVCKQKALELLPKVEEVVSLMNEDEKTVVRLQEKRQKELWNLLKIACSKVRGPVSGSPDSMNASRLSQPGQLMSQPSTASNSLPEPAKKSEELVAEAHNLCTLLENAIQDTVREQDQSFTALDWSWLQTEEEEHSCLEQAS
Procedure, shortened: as §1

MINK1 (ZC3) = target: T8, MINK1 (ZC3) (Homo sapiens, UniProt Q8N4C8)
T8 construct: purchased Invitrogen (SelectScreen platform)
Procedure, shortened: as §1

TBK1 = target: T9, TBK1 (Homo sapiens, UniProt Q9UHD2)
T9 construct: purchased Invitrogen, Inc. (SelectScreen service)
Procedure, shortened: as §1

MST1R (RON) = target: T10, MST1R (RON) (Homo sapiens, UniProt Q04912)
T10 construct: purchased Invitrogen (SelectScreen platform)
Procedure, shortened: as §1

NEK9 = target: T11, NEK9 (Homo sapiens, UniProt Q8TD19)
T11 construct: purchased Invitrogen, Inc. (SelectScreen service)
Procedure, shortened: as §1

SRPK1 = target: T12, SRPK1 (Homo sapiens, UniProt Q96SB4)
T12 construct: purchased Invitrogen, Inc. (SelectScreen service)
T12 sequence (Q96SB4 whole entry): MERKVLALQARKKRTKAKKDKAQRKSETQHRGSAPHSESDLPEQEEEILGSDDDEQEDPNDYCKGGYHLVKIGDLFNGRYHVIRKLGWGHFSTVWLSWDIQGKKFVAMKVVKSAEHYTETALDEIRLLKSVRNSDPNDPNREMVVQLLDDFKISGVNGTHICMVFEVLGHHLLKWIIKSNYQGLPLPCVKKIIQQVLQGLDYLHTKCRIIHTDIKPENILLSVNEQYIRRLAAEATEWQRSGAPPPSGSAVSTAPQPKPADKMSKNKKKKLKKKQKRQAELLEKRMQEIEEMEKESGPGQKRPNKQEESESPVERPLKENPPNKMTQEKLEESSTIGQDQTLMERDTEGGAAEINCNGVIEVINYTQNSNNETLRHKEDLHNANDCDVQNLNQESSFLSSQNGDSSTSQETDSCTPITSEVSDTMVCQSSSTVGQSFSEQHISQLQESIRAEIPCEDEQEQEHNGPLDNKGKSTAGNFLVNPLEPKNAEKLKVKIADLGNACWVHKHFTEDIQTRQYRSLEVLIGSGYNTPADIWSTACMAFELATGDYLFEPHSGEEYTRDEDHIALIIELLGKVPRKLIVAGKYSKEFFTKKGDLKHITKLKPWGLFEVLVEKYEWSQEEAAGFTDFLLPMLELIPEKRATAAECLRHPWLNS
Procedure, shortened: as §1

MAP4K4 (HGK, ZC1) = target: T13, MAP4K4 (HGK, ZC1) (Homo sapiens, UniProt O95819)
T13 construct: purchased Invitrogen (SelectScreen platform)
T13 sequence (O95819 whole entry): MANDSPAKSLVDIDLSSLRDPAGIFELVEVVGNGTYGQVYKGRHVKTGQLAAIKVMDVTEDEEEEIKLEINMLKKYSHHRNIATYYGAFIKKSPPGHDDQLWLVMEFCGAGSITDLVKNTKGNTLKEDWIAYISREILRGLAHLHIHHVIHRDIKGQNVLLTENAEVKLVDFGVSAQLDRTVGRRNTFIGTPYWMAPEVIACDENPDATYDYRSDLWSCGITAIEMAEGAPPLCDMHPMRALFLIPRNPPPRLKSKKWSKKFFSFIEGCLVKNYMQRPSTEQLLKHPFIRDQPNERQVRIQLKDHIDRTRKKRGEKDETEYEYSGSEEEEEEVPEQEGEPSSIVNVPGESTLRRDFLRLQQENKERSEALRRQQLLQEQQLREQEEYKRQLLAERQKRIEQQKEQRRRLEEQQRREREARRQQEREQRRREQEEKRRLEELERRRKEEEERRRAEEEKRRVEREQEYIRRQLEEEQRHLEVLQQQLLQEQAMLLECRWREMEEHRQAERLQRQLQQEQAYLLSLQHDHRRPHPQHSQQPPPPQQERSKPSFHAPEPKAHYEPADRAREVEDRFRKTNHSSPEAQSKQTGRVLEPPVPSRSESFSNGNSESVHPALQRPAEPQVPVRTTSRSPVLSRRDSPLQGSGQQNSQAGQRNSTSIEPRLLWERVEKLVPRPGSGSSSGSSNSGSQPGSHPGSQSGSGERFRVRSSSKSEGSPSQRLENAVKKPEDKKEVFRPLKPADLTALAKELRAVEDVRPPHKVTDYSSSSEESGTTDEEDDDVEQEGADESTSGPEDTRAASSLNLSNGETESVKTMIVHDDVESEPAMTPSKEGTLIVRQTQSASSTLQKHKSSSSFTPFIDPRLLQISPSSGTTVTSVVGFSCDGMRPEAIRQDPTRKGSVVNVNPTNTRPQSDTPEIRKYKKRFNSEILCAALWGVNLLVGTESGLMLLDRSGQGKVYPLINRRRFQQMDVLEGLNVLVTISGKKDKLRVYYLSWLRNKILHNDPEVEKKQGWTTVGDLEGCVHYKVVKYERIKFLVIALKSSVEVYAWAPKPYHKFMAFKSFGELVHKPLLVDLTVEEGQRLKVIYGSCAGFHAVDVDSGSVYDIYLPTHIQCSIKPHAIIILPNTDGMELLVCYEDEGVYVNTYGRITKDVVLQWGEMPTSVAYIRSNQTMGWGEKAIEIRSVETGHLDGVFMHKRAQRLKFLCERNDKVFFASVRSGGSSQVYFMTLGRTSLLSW
Procedure, shortened: as §1

CSNK2A1 (CK2 alpha 1) = target: T14, CSNK2A1 (CK2 alpha 1) (Homo sapiens, UniProt P68400)
T14 construct: purchased Invitrogen, Inc. (SelectScreen service)
T14 sequence (P68400 whole entry): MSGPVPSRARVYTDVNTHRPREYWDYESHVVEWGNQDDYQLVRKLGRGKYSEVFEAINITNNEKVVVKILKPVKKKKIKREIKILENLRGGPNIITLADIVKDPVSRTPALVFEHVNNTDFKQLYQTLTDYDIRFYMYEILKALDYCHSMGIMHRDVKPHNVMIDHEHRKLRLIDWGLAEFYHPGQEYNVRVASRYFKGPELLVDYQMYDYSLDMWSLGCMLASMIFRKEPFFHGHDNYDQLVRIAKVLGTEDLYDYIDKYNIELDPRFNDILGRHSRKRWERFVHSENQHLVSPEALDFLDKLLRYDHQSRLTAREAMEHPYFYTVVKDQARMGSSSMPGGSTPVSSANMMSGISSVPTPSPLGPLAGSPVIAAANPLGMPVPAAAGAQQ
Procedure, shortened: as §1

INSRR (IRR) = target: T15, INSRR (IRR) (Homo sapiens, UniProt P14616)
T15 construct: purchased Invitrogen (SelectScreen platform)
Procedure, shortened: as §1

FRK (PTK5) = target: T16, FRK (PTK5) (Homo sapiens, UniProt P42685)
T16 construct: purchased Invitrogen (SelectScreen)
Procedure, shortened: as §1

HIPK1 (Myak) = target: T17, HIPK1 (Myak) (Homo sapiens, UniProt Q86Z02)
T17 construct: purchased Invitrogen (SelectScreen platform)
Procedure, shortened: as §1

PIM2 = target: T18, PIM2 (Homo sapiens, UniProt Q9P1W9)
T18 construct: purchased Invitrogen, Inc. (SelectScreen platform)
Procedure, shortened: as §1

CDK5/p35 = target: T19, CDK5/p35 (Homo sapiens, UniProt Q00535)
T19 construct: purchased Invitrogen (SelectScreen platform)
Procedure, shortened: as §1

AXL = target: T20, AXL (Homo sapiens, UniProt P30530)
T20 construct: purchased Invitrogen (SelectScreen service)
Procedure, shortened: as §1

CSNK1E (CK1 epsilon) = target: T21, CSNK1E (CK1 epsilon) (Homo sapiens, UniProt P49674)
T21 construct: purchased Invitrogen (SelectScreen platform)
Procedure, shortened: as §1

LYN A = target: T22, LYN A (Homo sapiens, UniProt P07948)
T22 construct: purchased Invitrogen (SelectScreen)
Procedure, shortened: as §1

BRAF = target: T23, BRAF (Homo sapiens, UniProt P15056)
T23 construct: purchased Invitrogen, Inc. (SelectScreen platform)
Procedure, shortened: as §1

PIM1 = target: T24, PIM1 (Homo sapiens, UniProt P11309)
T24 construct: purchased Invitrogen, Inc. (SelectScreen platform)
T24 sequence (P11309 whole entry): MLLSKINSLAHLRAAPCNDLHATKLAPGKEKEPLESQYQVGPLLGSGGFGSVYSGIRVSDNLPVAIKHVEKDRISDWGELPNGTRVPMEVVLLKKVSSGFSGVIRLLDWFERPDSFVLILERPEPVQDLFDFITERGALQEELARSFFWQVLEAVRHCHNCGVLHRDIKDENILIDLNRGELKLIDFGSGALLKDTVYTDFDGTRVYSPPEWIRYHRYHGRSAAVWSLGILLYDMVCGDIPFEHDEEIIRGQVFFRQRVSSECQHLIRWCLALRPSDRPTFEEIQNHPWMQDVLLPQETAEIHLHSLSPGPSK
Procedure, shortened: as §1

ROS1 (ROS) = target: T25, ROS1 (ROS) (Homo sapiens, UniProt P08922)
T25 construct: purchased Invitrogen (SelectScreen)
Procedure, shortened: as §1

SGK (SGK1) = target: T26, SGK (SGK1) (Homo sapiens, UniProt O00141)
T26 construct: purchased Invitrogen, Inc. (SelectScreen platform)
Procedure, shortened: as §1

ABL1 = target: T27, ABL1 (Homo sapiens, UniProt P00519)
T27 construct: purchased Invitrogen (SelectScreen platform)
T27 sequence (P00519 whole entry): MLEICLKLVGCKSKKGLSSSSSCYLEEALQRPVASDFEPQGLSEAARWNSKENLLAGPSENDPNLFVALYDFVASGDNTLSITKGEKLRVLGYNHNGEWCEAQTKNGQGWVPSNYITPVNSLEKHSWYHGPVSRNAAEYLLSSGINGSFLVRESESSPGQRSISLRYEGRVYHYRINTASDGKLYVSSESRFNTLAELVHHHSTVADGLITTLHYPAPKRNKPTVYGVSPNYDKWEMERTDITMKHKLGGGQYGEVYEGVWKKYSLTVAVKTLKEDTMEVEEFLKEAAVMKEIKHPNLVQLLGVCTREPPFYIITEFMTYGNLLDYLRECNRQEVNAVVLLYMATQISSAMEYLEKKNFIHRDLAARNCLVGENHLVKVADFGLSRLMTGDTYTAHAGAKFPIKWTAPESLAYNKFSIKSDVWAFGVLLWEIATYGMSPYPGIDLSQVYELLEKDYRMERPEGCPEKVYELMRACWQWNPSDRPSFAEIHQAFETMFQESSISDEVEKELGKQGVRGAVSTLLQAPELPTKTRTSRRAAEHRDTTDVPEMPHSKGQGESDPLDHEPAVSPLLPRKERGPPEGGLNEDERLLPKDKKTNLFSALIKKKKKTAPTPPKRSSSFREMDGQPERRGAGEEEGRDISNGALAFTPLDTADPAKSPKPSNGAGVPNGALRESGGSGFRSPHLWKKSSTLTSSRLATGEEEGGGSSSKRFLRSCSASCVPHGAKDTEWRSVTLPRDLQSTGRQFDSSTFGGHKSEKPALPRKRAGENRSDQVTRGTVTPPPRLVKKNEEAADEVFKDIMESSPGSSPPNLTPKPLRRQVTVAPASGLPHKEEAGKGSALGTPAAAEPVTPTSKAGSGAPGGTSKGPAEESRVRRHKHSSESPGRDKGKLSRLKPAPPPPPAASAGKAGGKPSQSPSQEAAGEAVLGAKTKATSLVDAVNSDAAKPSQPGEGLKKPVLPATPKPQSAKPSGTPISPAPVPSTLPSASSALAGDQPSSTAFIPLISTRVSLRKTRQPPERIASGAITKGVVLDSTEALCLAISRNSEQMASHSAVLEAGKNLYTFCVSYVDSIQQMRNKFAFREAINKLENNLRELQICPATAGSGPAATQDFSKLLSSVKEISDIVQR
Procedure, shortened: as §1

T1 sequence (P41240 whole entry): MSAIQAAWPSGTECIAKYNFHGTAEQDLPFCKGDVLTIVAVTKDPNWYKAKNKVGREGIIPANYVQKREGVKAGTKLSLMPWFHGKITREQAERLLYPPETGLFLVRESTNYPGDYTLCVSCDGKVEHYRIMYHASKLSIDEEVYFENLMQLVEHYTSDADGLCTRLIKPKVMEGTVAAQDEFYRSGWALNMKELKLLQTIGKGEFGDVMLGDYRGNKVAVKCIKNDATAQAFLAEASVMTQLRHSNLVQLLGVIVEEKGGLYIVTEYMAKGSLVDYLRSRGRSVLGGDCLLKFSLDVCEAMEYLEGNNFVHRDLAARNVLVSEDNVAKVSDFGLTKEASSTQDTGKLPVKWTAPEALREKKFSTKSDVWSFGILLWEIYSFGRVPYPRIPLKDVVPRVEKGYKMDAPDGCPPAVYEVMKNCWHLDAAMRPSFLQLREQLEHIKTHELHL

Row | SMILES | EC50 (CSK) [µM] | EC50 (MAPK8 (JNK1)) [µM] | EC50 (CSNK2A2 (CK2 alpha 2)) [µM] | EC50 (CAMK1D (CaMKI delta)) [µM] | EC50 (CHEK1 (CHK1)) [µM] | EC50 (RPS6KB1 (p70S6K)) [µM] | EC50 (MERTK (cMER)) [µM] | EC50 (IKBKB (IKK beta)) [µM] | EC50 (MINK1 (ZC3)) [µM] | EC50 (TBK1) [µM] | EC50 (MST1R (RON)) [µM] | EC50 (NEK9) [µM] | EC50 (SRPK1) [µM] | EC50 (MAP4K4 (HGK, ZC1)) [µM] | EC50 (CSNK2A1 (CK2 alpha 1)) [µM] | EC50 (INSRR (IRR)) [µM] | EC50 (FRK (PTK5)) [µM] | EC50 (HIPK1 (Myak)) [µM] | EC50 (PIM2) [µM] | EC50 (CDK5/p35) [µM] | further results
1 | CCN(CC)CCNc1ccc2ncn3c4ccc(O)cc4c(=O)c1c23 [Symadex, 5-(2-(diethylamino)ethylamino)-8-hydroxy-6H-imidazo[4,5,1-de]acridin-6-one, reference compound] | > 5 | > 5 | 4.8 | 4 | > 5 | > 5 | 3.6 | > 5 | 1.09 | > 5 | > 5 | > 5 | > 5 | 3.13 | > 5 | > 5 | 2.11 | > 5 | > 5 | > 5 | EC50 (AXL): 3.77 µM; EC50 (CSNK1E (CK1 epsilon)): 1.09 µM; EC50 (LYN A): 0.791 µM; EC50 (BRAF): 4.45 µM; EC50 (PIM1): 0.959 µM; EC50 (ROS1 (ROS)): > 5 µM; EC50 (SGK (SGK1)): 2.71 µM; EC50 (ABL1): > 5 µM
2 | CN(C)CCCNc1ccc2ncn3c4ccc5[nH]ncc5c4c(=O)c1c23 [Compound (IV)] | > 5 | > 5 | > 5 | 2.78 | > 5 | 2.37 | > 5 | 2.8 | 1.36 | > 5 | > 5 | 2.93 | > 5 | > 5 | > 5 | 1.15 | 0.389 | 1.21 | > 5 | 2.8 | EC50 (AXL): 4.44 µM; EC50 (CSNK1E (CK1 epsilon)): > 5 µM; EC50 (LYN A): 0.389 µM; EC50 (BRAF): 1.44 µM; EC50 (PIM1): 3.42 µM; EC50 (ROS1 (ROS)): 2.66 µM; EC50 (SGK (SGK1)): 3.45 µM; EC50 (ABL1): 3.78 µM
